From US10766888B1, “HMOX1 inducers” (Mitobridge Inc., priority 2019, dated 2020)
≈ marks a conversion by molar mass, not a printed value. Where two headings read alike, the source gives them in different places.

How the values were obtained:
Kinetic solubility = assay type: physicochemical; settings: Dulbecco's phosphate buffer saline (DPBS), aqueous buffer, kinetic from dmso stock, DPBS pH 7.4, 25° C., 200 μM test compound
Method in brief: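 Compound from 10 mM DMSO stock diluted to 200 μM final in DPBS pH 7.4 and, separately, in DMSO, in duplicate. Shaken 16 h at 25 °C, then centrifuged 20 min at 25 °C. Supernatant analysed by HPLC.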

hERG channel = hERG channel (Homo sapiens, UniProt Q12809); assay: hERG manual patch clamp assay; assay type: cell-based; settings: HEK 293 cells stably expressing hERG channel, pH 7.35, 10 μM compound
hERG channel, sequence (Q12809 whole entry): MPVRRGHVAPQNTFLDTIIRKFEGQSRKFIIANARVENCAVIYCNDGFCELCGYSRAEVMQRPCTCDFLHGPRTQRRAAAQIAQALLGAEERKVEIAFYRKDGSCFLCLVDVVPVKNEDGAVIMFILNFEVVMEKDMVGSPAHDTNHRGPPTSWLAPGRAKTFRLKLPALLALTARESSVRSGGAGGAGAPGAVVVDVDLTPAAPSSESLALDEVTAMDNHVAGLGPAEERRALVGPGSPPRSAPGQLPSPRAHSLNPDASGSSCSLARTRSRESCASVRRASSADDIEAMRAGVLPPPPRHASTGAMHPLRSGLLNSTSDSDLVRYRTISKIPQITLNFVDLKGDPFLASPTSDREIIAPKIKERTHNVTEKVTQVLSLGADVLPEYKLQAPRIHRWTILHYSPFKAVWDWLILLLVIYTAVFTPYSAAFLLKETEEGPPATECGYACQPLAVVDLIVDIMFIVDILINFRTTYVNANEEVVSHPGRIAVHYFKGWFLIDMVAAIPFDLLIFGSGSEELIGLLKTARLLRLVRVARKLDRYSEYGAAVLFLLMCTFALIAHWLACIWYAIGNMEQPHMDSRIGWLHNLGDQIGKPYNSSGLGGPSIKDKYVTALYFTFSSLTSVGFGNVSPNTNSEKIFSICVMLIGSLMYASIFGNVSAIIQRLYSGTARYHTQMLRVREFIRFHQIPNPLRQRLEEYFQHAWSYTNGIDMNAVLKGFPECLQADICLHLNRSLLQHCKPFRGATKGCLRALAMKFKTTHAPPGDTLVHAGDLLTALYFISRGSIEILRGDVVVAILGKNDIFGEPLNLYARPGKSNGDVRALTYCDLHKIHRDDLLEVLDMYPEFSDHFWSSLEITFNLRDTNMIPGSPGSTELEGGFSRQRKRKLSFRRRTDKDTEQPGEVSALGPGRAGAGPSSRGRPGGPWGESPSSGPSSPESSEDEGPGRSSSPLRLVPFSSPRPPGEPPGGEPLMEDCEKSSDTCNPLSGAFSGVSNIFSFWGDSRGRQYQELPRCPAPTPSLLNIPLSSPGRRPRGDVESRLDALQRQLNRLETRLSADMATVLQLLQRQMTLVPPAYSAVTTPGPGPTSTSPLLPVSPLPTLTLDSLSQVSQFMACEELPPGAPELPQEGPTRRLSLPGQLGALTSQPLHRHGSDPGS
Method in brief: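 Whole-cell manual patch clamp on doxycycline-induced HEK293 cells stably expressing hERG. Tail current measured at −50 mV after a 4.8 s step to +30 mV from −90 mV holding; test compounds at 10 μM, 0.1% DMSO, vs vehicle baseline. Percent inhibition from peak tail current, […].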

[1] = PK study: plasma and brain levels in mice; assay type: in vivo; settings: male C57BL/6 mice, 50 mg/kg oral; for concentration at 0.5 h / concentration at 4 h: mouse; for concentration at 0.5 h: 0.5 hr post dosing; for concentration at 4 h: 4 hr post dosing
Description: 9-10 week old male C57BL/6 mice were dosed orally with 50 mg/kg of the test compound formulated in 5% w/v tween 80 and 0.5% methyl cellulose. At 0.5 and 4 h post dosing, whole blood was collected, animals were sacrificed and brain tissues were collected. The blood samples were immediately placed on ice, and centrifuged within 60 min at 4° C. for 3 min at 14000 rpm to obtain plasma. Plasma was transferred by pipette to pre-labeled Eppendorf tubes, stored at −80° C. until analyzed.
Brain tissue samples were collected and rinsed with fresh ice cold 0.9% NaCl solution, dried quickly and thereafter frozen on dry ice/liquid nitrogen and stored at −70±10° C. until analyzed. Homogenization was done using phosphate buffer saline and used for analysis. Bioanalysis was performed using LC-MS/MS (API 4000).

[2] = brain, read-out: Brain (ng/g) 0.5 hr
[3] = plasma, read-out: Plasma (ng/ml) 0.5 hr
[4] = plasma, read-out: Plasma (ng/ml) 4 hr

| Compound | solubility at 16 h (Kinetic solubility) [µM] | inhibition at 10 µM (hERG channel) [%] | concentration at 0.5 h [1, 2] [ng/g] | concentration at 0.5 h [1, 3] [ng/mL] | concentration at 4 h [1, 4] [ng/mL] | brain penetration (in words) [1] | concentration at 4 h ([1]; brain, read-out: Brain (ng/g) 4 hr) [ng/g] |
| --- | --- | --- | --- | --- | --- | --- | --- |
| Cn1c(Nc2nc3ccccc3o2)nc2cc(C(=O)NCCOCCO)ccc21 [Example 17, 2-(benzo[d]oxazol-2-ylamino)-N-(2-(2-hydroxyethoxy)ethyl)-1-methyl-1H-benzo[d]imidazole-5-carboxamide] | 11.6 (≈ 4.59 µg/mL) | 16 | 188 ± 83 | 4240 ± 771 | 72 ± 38 | – | – |
| COCCNC(=O)c1ccc2c(c1)nc(Nc1nc3ccc(OCCOC)cc3o1)n2C [Example 56, 2-((6-(2-methoxyethoxy)benzo[d]oxazol-2-yl)amino)-N-(2-methoxyethyl)-1-methyl-1H-benzo[d]imidazole-5-carboxamide] | 9.7 (≈ 4.26 µg/mL) | 35 | 4230 ± 600 | 4240 ± 428 | 281 ± 318 | good brain penetration | 122 ± 153 |
